B1: gintonin: ginseng-derived glycolipoprotein; structural protein of ginseng major latex-like protein (MLP151) and ribonuclease-like storage proteins; crude gintonin used in tests (protein)
chain 1: MGLTGKLICQTGIKSDGDVFHELFGTRPHHVPNITPANIQGCDLHEGEFGKVGSVVIWNYSIDGNAMIAKEEIVAIDEEDKSVTFKVVEGHLFEEFKSIVFSVHVDTKGEDNLVTWSIDYEKLNESVKDPTSYLDFLLSVTRDIEAHHLPK
chain 2: RSDYPWAMFALRLQWPAGFCEVNNACDTKSLLNTFTIHGLYPYNAKGTPALYCDGTAFDVNSVSDFLAEMHLAWPSHETNTEDIQFWEHEWKKHGRCSEALLKQTDYFRTALAFRKAFDIVGLLNQEGIYPNNDLYRPKMIKEAIKKHLNAVPEIDFTKNENSEYVLTDINVCVNQQATRFVDCPTDDATDDYRLKFVRLPSKMKFADPRTNSII

Assays:
[1] = tested on: NMDA receptors (NR1 and NR2); assay: NMDA receptor activity in Xenopus oocytes, two-electrode voltage clamp; type: cell-based
Method in brief: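 Xenopus oocytes injected with NR1 and NR2 cDNA (100 ng/40 nl) and kept 4-5 days at 18 °C in ND96. Two-electrode voltage clamp at −60 mV in Mg2+-free ND96, pH 7.6. Currents evoked by […].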

BKCaK+ channels = assay: BKCa K+ channel activity in Xenopus oocytes, two-electrode voltage clamp; type: cell-based
Method in brief: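 Two-electrode voltage clamp was performed at room temperature on stage V-VI Xenopus oocytes. Oocytes were perfused with Cl−/Ca2+-free solution, pH 7.4, containing 500 μM anthracene-9-carboxylic acid. Outward currents were recorded on 400 ms steps from −80 mV holding to +40 mV.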

| Molecule | effect on NMDA-induced inward current ([1]; Kil6425 10 μM, U73122 1 μM, 2-APB 100 μM, BAPTA 100 μM 3 h) | effect on gintonin-induced NMDA receptor activation ([1]; gintonin 1 μg/ml, Kil6425 10 μM, U73122, U73343 1 μM, 2-APB 100 μM, BAPTA 100 μM 3 h, genistein 10 μM, PP2, PP3 30 μM) | effect on gintonin-induced BKCaK+ channel activation (BKCaK+ channels; Kil6425 10 μM, U73122, U73343 1 μM, 2-APB 100 μM, BAPTA-AM, PMA 1 μM) | ED50, NMDA receptor-mediated inward currents ([1]; NMDA receptor-expressing Xenopus oocytes) | ED50, BKCaK+ channel activation (BKCaK+ channels; BKCaK+ channels expressed in Xenopus oocytes) | BKCa channel activity on repetitive treatment (desensitization) (BKCaK+ channels; repetitive treatments, data not shown) |
| --- | --- | --- | --- | --- | --- | --- |
| Cc1noc(-c2ccc(CSCCC(=O)O)cc2)c1NC(=O)OC(C)c1ccccc1Cl (stereo not drawn) [Kil6425] | had no influences on NMDA-NMDA receptor activation | blocked gintonin-induced NMDA receptor activation | reduced the gintonin-induced activation of BKCaK^+ channels | – | – | – |
| B1 | – | – | – | 0.49 ± 0.10 µg/mL | 0.71 ± 0.08 µg/mL | Repetitive treatments of gintonin reduced BKa channel activity |

Source: patent publication US20140234868A1, “USE FOR GLYCOLIPOPROTEIN GINTONIN, ISOLATED AND IDENTIFIED FROM GINSENG, AS A NATURAL MEDICAL-PLANT DERIVED LIGAND” (KONKUK UNIVERSITY INDUSTRIAL COOPERATION CORP., priority 2011, published 2014)
